Experimental data published in patent publication US4223041A, “Urea derivatives to treat anxiety and aggressivity” (Labaz, priority 1976, dated 1980).

Legend:
[1] = Four plates test (anxiolytic action); assay type: in vivo, mouse; conditions: for ED25: po, read-out: ED25 in the four plates test (dose which offers 25%-protection against anxiety); for positive result in four plates test without sedative effect: at ED25 of four plates test
Description: This test, which is specific to the anxiolytics, was undertaken with the mouse, thirty minutes after the oral administration of the compound to be studied.
It consists in placing mice in a box with fairly high walls, of which the bottom comprises four square plates. These plates, which all have the same dimensions, are separated from each other by a central axis and are alternately electrified by the positive and negative poles of a source of electric current. There is a space of a few millimeters between adjacent plates.
The mouse placed in this apparatus explores it and thus passes over the different plates in succession. Note is taken of the number of times each animal passes over the plates during one minute. When the current is switched on, the mouse passing over the plates receives an electric shock (80 V), which provokes a gradual decrease in the exploratory movements, and finally brings the animals to a complete stop.
Anxiolytic agents enable the animals to become more or less indifferent to the electric shock.
The percentage of protection against anxiety given by compounds of the invention was calculated by comparing the number of times the control animals passed over the plates when electrified with the number of times the treated animals passed over the electrified plates.

[2] = "Electrically-provoked combat" test (anxiolytic action); assay type: in vivo, mouse; conditions: for protection against anxiety: same experimental conditions
Description: Under certain conditions, a pair of mice reacts to an electric stimulus by a series of combats which are provoked by the anxiety felt by the animals as a result of the electric shock. This anxiety is expressed by a combat with the other animal which is rendered responsible. For this reason, the test described hereunder can be considered as a means of evaluating the anxiolytic action of a compound. Two mice which have been previously on a diet consisting only of water are placed together in a cage. They are then submitted to a series of electric impulses of an intensity varying between 40 and 80 volts according to the sensitivity of the animals. The test is first carried out with untreated animals as controls and then with the same animals treated 30 minutes before the test with a dose of the compound to be studied.
Note is taken on the number of combats engaged. The results are expressed in percentage of decrease in the number of combats engaged by the treated animals in comparison with the number of combats registered before treatment.

[3] = Action on the pentylenetetrazole-induced seizure (anticonvulsant activity); assay type: in vivo, mouse
Protocol: The purpose of this test which is carried out on mice is to determine whether the compounds of the invention, when given preventively by oral route, are capable at certain doses of protecting some of the animals against the epileptic seizure produced by a predetermined dose of pentylenetetrazole which would be 100% fatal in the absence of the compound.
The compound to be studied was administered fifteen minutes before an injection of 125 mg/kg of pentylenetetrazole and note was taken of the number of deaths occurring during the three hours following this injection. The results were expressed in percentage of protection of the animals against death at the dose studied.

[4] = rota rod test (neurotoxicity); assay type: in vivo, mouse; conditions: for % of failures in rota rod test: mice, 30 min after administration; for Rota rod (% of failures): comparison at 25%-protection dose of four plates test
Protocol: The test used was that known as the rota rod test described by BOISSIER (Therapie 1958 XIII pp. 1074-1118).
This test aims at determining the ability of mice to coordinate their movements by seeing to what extent they can remain on a roller turning at a rate of 4 revolutions per minute for two minutes. The trial was carried out thirty minutes after administration by oral route of the compound to be studied and the percentage of failures was noted.
The value of this test is twofold. Failure on the part of the animals gives a very early indication of the slightest damage to the meuromuscular functions which cannot be discerned by any other means. Secondly, this test serves as an element of comparison for drawing up index figures involving the results obtained with other tests.

[5] = Action with respect to tremorine (cholinolytic properties); assay type: in vivo, mouse; conditions: 100 mg/kg oral, mice, 30 min before 100 mg/kg i.p. tremorine
Protocol: This test has been described by EVERETT (Nature, 1956, 177-238)
When injected into mice, tremorine produces peripheral cholinergic effects i.e. weeping, hypersalivation, sedation, diarrhea as well as central cholinergic effects i.e. tremors, akinesia.
Batches of 10 mice separated into individual cages, were given the compound to be studied, by oral route, 30 minutes before administration of an intraperitoneal dose of 100 mg/kg of tremorine.
Note was then taken in each batch of the percentage of animals presenting the various symptoms of tremorine-induced poisoning since at such a dose of tremorine 100% of the control animals are poisoned.
The results hereunder are expressed in percentage of mice protected against tremor at the dose of the compound of the invention which was administered: […]

[6] = Aggressivity of the isolated mouse (antiaggressive activity); assay type: in vivo
Description: If a male mouse is isolated in a cage for three to four weeks, it will spontaneously attack any other animal of the same species which is placed in the same cage.
Mice wer isolated for the period of time required to render them spontaneously aggressive. Two mice, one rendered aggressive and one in a normal non-aggressive state, were then placed together and note was taken of the number of attacks by the aggressive mouse which occurred over a period of three minutes.
Each batch was composed of five pairs of animals.
The aggressive animals of each batch were then treated by oral route with the compound to be studied which was administered in such a way that the aggressive animals of each batch received a higher dose than those of the preceding batch.
Thirty minutes after administration, the couples were placed together again for a further three minutes and the number of attacks noted.

[7] = spontaneous motoricity in the mouse; assay type: in vivo; conditions: for Spontaneous motoricity (% of decrease): comparison at 25%-protection dose of four plates test
Description: This test is described in U.S. Pat. No. 3,929,869.

[8] = Mus musculus, po, 3 h, read-out: % of protection against death
[9] = Mus musculus, 0.5 h, mice, 30 min before test, read-out: % of decrease in number of combats
[10] = at the dose which provokes a 60%-decrease in the number of combats

## CCCCC(C)(CC)NC(N)=O (stereo not shown) [Compound G, 1-(1-Methyl-1-ethyl-pentyl)-urea]
[1]; 0.5 h, 282 mg/kg oral, mouse, 30 min after administration, read-out: % of protection against anxiety
  inhibition in vivo at 282 mg/kg: 18%
[2]; Mus musculus, 0.5 h, 94 mg/kg, mice, 30 min before test, read-out: % of decrease in number of combats
  inhibition in vivo at 94 mg/kg: 48%
[3]; [8]
  responders at 188 mg/kg: 20%

## CCCC(CCC)(CC(C)C)NC(N)=O [Compound P, 1-(1,1-Di-n-propyl-3-methyl-n-butyl)-urea]
[2]; Mus musculus, 0.5 h, 460 mg/kg, mice, 30 min before test, read-out: % of decrease in number of combats
  inhibition in vivo at 460 mg/kg: 31%
[4]; 690 mg/kg oral
  % of failures in rota rod test: 0%

## C=CCC(CCC)(CCC)NC(N)=O [Compound E, 1-(1,1-Di-n-propyl-3-butenyl)-urea]
[5]
  % of protection against tremor: 0%
[1]; 0.5 h, 100 mg/kg oral, mouse, 30 min after administration, read-out: % of protection against anxiety
  inhibition in vivo at 100 mg/kg: 27%
[2]; Mus musculus, 0.5 h, 50 mg/kg, mice, 30 min before test, read-out: % of decrease in number of combats
  inhibition in vivo at 50 mg/kg: 70%
[3]; [8]
  responders at 300 mg/kg: 90%

## C#CCNC(=O)NC(CCC)(CCC)CCC [Compound M, 1-(1,1-Di-n-propyl-n-butyl)-3-(2-propynyl)-urea]
[2]; Mus musculus, 0.5 h, 254 mg/kg, mice, 30 min before test, read-out: % of decrease in number of combats
  inhibition in vivo at 254 mg/kg: 56%
[4]; 635 mg/kg oral
  % of failures in rota rod test: 0%

## CCCC(CCC)(NC(N)=O)C(C)C [Compound H, 1-(1-n-Propyl-1-isopropyl-n-butyl)-urea]
[1]; 0.5 h, 250 mg/kg oral, mouse, 30 min after administration, read-out: % of protection against anxiety
  inhibition in vivo at 250 mg/kg: 39%
[2]; Mus musculus, 0.5 h, 110 mg/kg, mice, 30 min before test, read-out: % of decrease in number of combats
  inhibition in vivo at 110 mg/kg: 50%

## CCCC(CCC)(CCC)NC(=O)NC [Compound K, 1-(1,1-Di-n-propyl-n-butyl)-3-methyl-urea]
[1]; 0.5 h, 300 mg/kg oral, mouse, 30 min after administration, read-out: % of protection against anxiety
  inhibition in vivo at 300 mg/kg: 25%
[1]; 0.5 h, mouse
  ED25: 300 mg/kg
[2]; [9]
  inhibition in vivo at 200 mg/kg: 42%
[4]; 300 mg/kg oral, mouse (ED25 in four plates test)
  failures in the rota rod test: no failures
[4]; 600 mg/kg oral
  % of failures in rota rod test: 0%
[4]; at ED25 of four plates test
  sedative effect relative to reference products: much less sedative than diazepam and meprobamate
[3]; Mus musculus, 3 h, 200 mg/kg oral, mice, 15 min before 125 mg/kg pentylenetetrazole, read-out: % of protection against death
  responders at 200 mg/kg: 30%

## CC#CC(CCC)(CCC)NC(N)=O [Compound D, 1-(1,1-Di-n-propyl-2-butynyl)-urea]
[2]; Mus musculus, 0.5 h, 74 mg/kg, mice, 30 min before test, read-out: % of decrease in number of combats
  inhibition in vivo at 74 mg/kg: 50%
[4]; 250 mg/kg oral
  % of failures in rota rod test: 50%
[3]; [8]
  responders at 80.5 mg/kg: 50%
[3]; pentylenetetrazole-induced seizure, mice, oral
  anticonvulsant activity (in words): considerable

## C=CCNC(=O)NC(CCC)(CCC)CCC [Compound N, 1-(1,1-Di-n-propyl-n-butyl)-3-(2-propenyl)-urea]
[2]; Mus musculus, 0.5 h, 360 mg/kg, mice, 30 min before test, read-out: % of decrease in number of combats
  inhibition in vivo at 360 mg/kg: 30%
[4]; 720 mg/kg oral
  % of failures in rota rod test: 0%
[3]; Mus musculus, 3 h, 240 mg/kg oral, mice, 15 min before 125 mg/kg pentylenetetrazole, read-out: % of protection against death
  responders at 240 mg/kg: 20%

## CN1C(=O)CN=C(c2ccccc2)c2cc(Cl)ccc21 [diazepam, reference compound]
[6]; 8 mg/kg
  sedative effects: strongly sedative
[6]; 8 mg/kg (strongly sedative), isolated mouse
  reduction in the number of attacks: 38%
[6]; doses active in four plates and electrically-provoked combat tests
  activity in the isolated mouse test: devoid of activity
[6]; up to 4 mg/kg, isolated mouse
  antiaggressive effect: no results
[1]
  positive result in four plates test without sedative effect: impossible
[1]; 0.5 h, mouse
  ED25: 2 mg/kg
[1]; sedative effects too intense above 2 mg/kg
  ED50 in the four plates test: not possible to obtain a ED50
[2]; 0.69 mg/kg
  protection against anxiety: 50%
[2]; mice, without action on spontaneous motoricity
  decrease in number of combats obtainable without altering spontaneous motoricity: ≤ 15%
[7]; 2 mg/kg
  Spontaneous motoricity (% of decrease): 57%
[7]; dose producing 80% decrease in the number of combats
  decrease in spontaneous motoricity at dose giving 80% reduction in combats: 40%
[4]; [10]
  failures in the rota rod test: 12%
[4]; 2 mg/kg
  Rota rod (% of failures): 35%

## CCCC(CCC)(CCC)NC(=O)N(C)C [Compound I, 1-(1,1-Di-n-propyl-n-butyl)-3,3-dimethyl-urea]
[1]; 0.5 h, 350 mg/kg oral, mouse, 30 min after administration, read-out: % of protection against anxiety
  inhibition in vivo at 350 mg/kg: 29%
[2]; [9]
  inhibition in vivo at 200 mg/kg: 55%

## C=CCC(CCC)(CCC)NC(=O)NC [Compound L, 1-(1,1-Di-n-propyl-3-butenyl)-3-methyl-urea]
[2]; Mus musculus, 0.5 h, 228 mg/kg, mice, 30 min before test, read-out: % of decrease in number of combats
  inhibition in vivo at 228 mg/kg: 53%

## CCCCC(CCCC)(CCCC)NC(N)=O [Compound J, 1-(1,1-Di-n-butyl-n-pentyl)-urea]
[2]; [9]
  inhibition in vivo at 200 mg/kg: 67%
[4]; 500 mg/kg oral
  % of failures in rota rod test: 0%

## CCC(CC)(CC)NC(N)=O [Compound F, 1-(1,1-Diethyl-n-propyl)-urea]
[1]; 0.5 h, 175 mg/kg oral, mouse, 30 min after administration, read-out: % of protection against anxiety
  inhibition in vivo at 175 mg/kg: 16%
[2]; Mus musculus, 0.5 h, 82 mg/kg, mice, 30 min before test, read-out: % of decrease in number of combats
  inhibition in vivo at 82 mg/kg: 50%
[3]; [8]
  responders at 150 mg/kg: 50%

## CCCC(C)(COC(N)=O)COC(N)=O [meprobamate, reference compound]
[6]; 170 mg/kg
  sedative effects at antiaggressive dose: considerable
[6]; 0.5 h, oral, isolated mouse, 30 min after administration, read-out: ED50 (50% fewer attacks)
  ED50: 170 mg/kg
[1]
  positive result in four plates test without sedative effect: impossible
[1]; 0.5 h, mouse
  ED25: 79 mg/kg
[2]; 70 mg/kg
  protection against anxiety: 50%
[7]; 79 mg/kg
  Spontaneous motoricity (% of decrease): 11%
[4]; 170 mg/kg (ED50 in isolated mouse test)
  rota rod test effect: 75%
[4]; [10]
  failures in the rota rod test: 35%
[4]; 79 mg/kg
  Rota rod (% of failures): 30%

## CCC#CC(CCC)(CCC)NC(N)=O [Compound B, 1-(1,1-Di-n-propyl-2-pentynyl)-urea]
[2]; Mus musculus, 0.5 h, 56.5 mg/kg, mice, 30 min before test, read-out: % of decrease in number of combats
  inhibition in vivo at 56.5 mg/kg: 52%
